{"source": "paper PMC2889835", "about": "(PLoS ONE, 2010)", "key": {"RBV uptake": {"system": "RBV uptake", "format": "cell-based"}, "VSV-GFP or SeV-GFP [1]": {"system": "VSV-GFP or SeV-GFP", "format": "cell-based, vesicular stomatitis virus; Sendai virus"}, "[2]": {"system": "BHK21, BSRT7, HeLa, A549, 4T1, HEp2 and Vero cells"}, "VSV-GFP [3]": {"system": "VSV-GFP", "experiment": "microbe, parasite or virus in culture", "format": "cell-based", "conditions": "Vesicular stomatitis virus; for IC50: read-out: IC50 VSV-GFP; for IC90: read-out: IC90 VSV-GFP"}, "SeV-GFP [4]": {"system": "SeV-GFP", "format": "cell-based, Sendai virus"}, "canine distemper virus": {"system": "canine distemper virus", "conditions": "Vero cells; cited from earlier work"}, "VSV-GFP [5]": {"system": "VSV-GFP", "format": "cell-based, vesicular stomatitis virus"}, "[6]": {"system": "BHK21, BSRT7, HeLa, A549, 4T1, HEp2 and Vero cells", "experiment": "Cell viability assays (MTT, CellTiter-Glo, trypan blue dye exclusion)", "conditions": "RBV up to 1000 µM, 24 h, all seven cell lines"}, "SeV-GFP [7]": {"system": "SeV-GFP", "experiment": "microbe, parasite or virus in culture", "format": "cell-based, Sendai virus", "conditions": "Respirovirus muris; for IC50: read-out: IC50 SeV-GFP; for IC90: read-out: IC90 SeV-GFP"}, "[8]": {"system": "Vero, HepG2, MDCK and other cell lines", "conditions": "cited from earlier work"}, "VSV-GFP or SeV-GFP [9]": {"system": "VSV-GFP or SeV-GFP", "format": "cell-based, vesicular stomatitis virus; Sendai virus", "remark": "listed apart in the source"}}, "note": "Entries after “also recorded” stand apart in the source; their conditions may differ. Where two headings read alike, the source gives them in different places. Starred links: 1 amine or outer side, 2 acyl side, 3 side chain; linkers in the order of their positions; H or OH if unused. Positions of bridges follow the written chain, without caps; N, C: chain ends. Non-standard residues stand in square brackets, D forms with d. Residues, ends and D or L forms follow the SMILES beside them. Chains are numbered I, II in the order given. Actinocin(9to1) = Cc1c2oc3c(C)ccc(C(=O)[*:1])c3nc-2c(C(=O)[*:2])c(N)c1=O; NMeV = CN[C@H](C(=O)O)C(C)C; Sar = CNCC(=O)O", "data": [{"molecule": "Cc1c2oc3c(C)ccc(C(=O)N[C@@H]4C(=O)N[C@H](C(C)C)C(=O)N5CCC[C@H]5C(=O)N(C)CC(=O)N(C)[C@@H](C(C)C)C(=O)O[C@@H]4C)c3nc-2c(C(=O)N[C@@H]2C(=O)N[C@H](C(C)C)C(=O)N3CCC[C@H]3C(=O)N(C)CC(=O)N(C)[C@@H](C(C)C)C(=O)O[C@@H]2C)c(N)c1=O", "note": "[ActD, actinomycin D] (I: T[dV]P[Sar][NMeV] / II: T[dV]P[Sar][NMeV]; ester I:1-I:C, II:1-II:C; linker I:N-II:N via Actinocin(9to1))", "values": [{"measurement": "Effect on RBV uptake", "setting": "RBV uptake", "result": "did not inhibit RBV uptake"}, {"measurement": "Effect on viral replication when used alone", "setting": "VSV-GFP or SeV-GFP [1]", "result": "somewhat mild effect on viral replication"}, {"measurement": "Neutralizing effect on antiviral activity of RBV", "setting": "VSV-GFP or SeV-GFP [1]", "result": "clear neutralizing effect on RBV"}]}, {"molecule": "O=[N+]([O-])c1ccc(CSc2ncnc3c2ncn3[C@@H]2O[C@H](CO)[C@@H](O)[C@H]2O)cc1", "note": "[NBMPR, S-(4-Nitrobenzyl)-6-thioinosine]", "values": [{"measurement": "Effect on RBV uptake", "setting": "RBV uptake", "result": "RBV uptake was inhibited in most cell lines"}]}, {"molecule": "NC(=O)c1ncn([C@@H]2O[C@H](CO)[C@@H](O)[C@H]2O)n1", "note": "[RBV, 1-ß-D-ribofuranosyl-1,2,4-triazole-3-carboxamide]", "values": [{"measurement": "Long-term accumulation of RBV", "setting": "[2]", "result": "markedly decreased levels of RBV accumulation"}, {"measurement": "Short-term RBV uptake", "setting": "[2]", "result": "somewhat similar levels of RBV import"}, {"measurement": "IC50", "setting": "VSV-GFP [3]; 4T1, 24 h", "result": 20, "unit": "µM"}, {"measurement": "IC90", "setting": "VSV-GFP [3]; 4T1, 24 h", "result": 60, "unit": "µM"}, {"measurement": "IC50", "setting": "VSV-GFP [3]; A549, 24 h", "result": 190, "unit": "µM"}, {"measurement": "IC90", "setting": "VSV-GFP [3]; A549, 24 h", "result": 610, "unit": "µM"}, {"measurement": "IC50", "setting": "VSV-GFP [3]; BHK-21, 24 h", "result": 275, "unit": "µM"}, {"measurement": "IC90", "setting": "VSV-GFP [3]; BHK-21, 24 h", "result": 1100, "unit": "µM"}, {"measurement": "IC50", "setting": "VSV-GFP [3]; BSR-T7, 24 h", "result": 10, "unit": "µM"}, {"measurement": "IC90", "setting": "VSV-GFP [3]; BSR-T7, 24 h", "result": 40, "unit": "µM"}, {"measurement": "IC50", "setting": "VSV-GFP [3]; HEp-2, 24 h", "result": 70, "unit": "µM"}, {"measurement": "IC90", "setting": "VSV-GFP [3]; HEp-2, 24 h", "result": 310, "unit": "µM"}, {"measurement": "IC50", "setting": "VSV-GFP [3]; HeLa, 24 h", "result": 70, "unit": "µM"}, {"measurement": "IC90", "setting": "VSV-GFP [3]; HeLa, 24 h", "result": 150, "unit": "µM"}, {"measurement": "IC50", "setting": "VSV-GFP [3]; Vero, 24 h", "result": 2250, "unit": "µM"}, {"measurement": "IC90", "setting": "VSV-GFP [3]; Vero, 24 h", "result": "> 3000", "unit": "µM"}, {"measurement": "Effect on SeV replication compared with VSV", "setting": "SeV-GFP [4]", "result": "inhibited SeV replication to a greater degree than VSV"}, {"measurement": "IC50", "setting": "canine distemper virus", "result": "20 to 50", "unit": "µM"}, {"measurement": "IC80", "setting": "canine distemper virus", "result": "40 to 110", "unit": "µM"}, {"measurement": "Effect on VSV replication (GFP expression)", "setting": "VSV-GFP [5]", "result": "effectively inhibited VSV"}, {"measurement": "Effect on VSV-driven GFP expression", "setting": "VSV-GFP [5]", "result": "surprisingly mild effect; also recorded: somewhat intermediate effect"}, {"measurement": "Effect on cell viability (cellular toxicity)", "setting": "[6]", "result": "did not produce any statistically significant decrease in cell viability; also recorded: did not produce any significant cytotoxicity"}, {"measurement": "IC50", "setting": "SeV-GFP [7]; 4T1, 48 h", "result": 10, "unit": "µM"}, {"measurement": "IC90", "setting": "SeV-GFP [7]; 4T1, 48 h", "result": 18, "unit": "µM"}, {"measurement": "IC50", "setting": "SeV-GFP [7]; A549, 48 h", "result": 90, "unit": "µM"}, {"measurement": "IC90", "setting": "SeV-GFP [7]; A549, 48 h", "result": 320, "unit": "µM"}, {"measurement": "IC50", "setting": "SeV-GFP [7]; BHK-21, 48 h", "result": 190, "unit": "µM"}, {"measurement": "IC90", "setting": "SeV-GFP [7]; BHK-21, 48 h", "result": 850, "unit": "µM"}, {"measurement": "IC50", "setting": "SeV-GFP [7]; BSR-T7, 48 h", "result": 16, "unit": "µM"}, {"measurement": "IC90", "setting": "SeV-GFP [7]; BSR-T7, 48 h", "result": 40, "unit": "µM"}, {"measurement": "IC50", "setting": "SeV-GFP [7]; HEp-2, 48 h", "result": 12, "unit": "µM"}, {"measurement": "IC90", "setting": "SeV-GFP [7]; HEp-2, 48 h", "result": 45, "unit": "µM"}, {"measurement": "IC50", "setting": "SeV-GFP [7]; HeLa, 48 h", "result": 40, "unit": "µM"}, {"measurement": "IC90", "setting": "SeV-GFP [7]; HeLa, 48 h", "result": 110, "unit": "µM"}, {"measurement": "IC50", "setting": "SeV-GFP [7]; Vero, 48 h", "result": 1550, "unit": "µM"}, {"measurement": "IC90", "setting": "SeV-GFP [7]; Vero, 48 h", "result": "> 3000", "unit": "µM"}]}, {"molecule": "Nc1nc2c(ncn2[C@@H]2O[C@H](CO)[C@@H](O)[C@H]2O)c(=O)[nH]1", "note": "[guanosine]", "values": [{"measurement": "Excess of physiological GTP levels", "setting": "[8]", "result": "at least 4 fold"}, {"measurement": "Effect on virus replication when used alone", "setting": "VSV-GFP or SeV-GFP [9]", "result": "no significant effect on virus replication"}, {"measurement": "Neutralizing effect on antiviral activity of RBV", "setting": "VSV-GFP or SeV-GFP [9]", "result": "clear (almost 100%) neutralizing effect on RBV"}]}]}
